According to patent US6911524B1 (priority 1999, dated 2005):
Bridge positions count the residues as written; N and C are the ends. Peptide text beside a SMILES is read from it.

How the values were obtained:
Assay type in all cases: cell-based
Perkinsus marinus = test: Antiprotozoan activity, parasite viability; conditions: Perkinsus marinus in seawater, 1 hour at room temperature, viability by acridine orange / ethidium bromide staining
Method: The oyster-parasite protozoan Perkinsus marinus is cultured in DMEM medium (GIBCO), according to the protocol described by GAUTHIER and VASTA [J. Invertebr. Pathol., 66, 156-168, (1995)].
10 μM of purified peptide are added to 4×10^4 P. marinus, in seawater (final volume 20 μl) . The mixture is incubated for 1 hour at room temperature. The viability of the parasites is estimated by staining with acridine orange and with ethidium bromide, as described by MORVAN et al. [J. Invertebr. Pathol., 69, 177-82 (1997)]. The maximum viability is evaluated, as a positive control, in samples to which the peptide has not been added.

Escherichia coli D31 = test: Antibacterial assay, MBC determination; conditions: summary of table 1
Method: (§1) The minimum […] concentration (MBC) of the peptides was determined according to the protocol described by HANCOCK et al.
(§2) A series of successive doubling dilutions of the peptides, in an aqueous solution containing 0.01% of acetic acid and 0.2% of bovine serum albumin (BSA), is prepared.
(§3) 10 μl aliquots of each dilution are incubated in sterile 96-well polypropylene microtitration plates, in the presence of 100 μl of bacterial suspension at a starting optical density of A600=0.001, in MUELLER HINTON BROTH liquid medium. The incubation is carried out for 18 h at 37° C. with stirring, except in the case of the marine bacteria, for which the incubation is carried out 25° C. The MBC is determined by plating out, onto solid MUELLER HINTON AGAR medium, the content of the wells corresponding to the first 3 dilutions for which no bacterial growth is observed, and incubating at 37° C. for 18 hours. The lowest concentration of peptide which prevents any residual formation of colonies corresponds to the MBC.

Micrococcus luteus = test: Antibacterial assay, MBC determination; conditions: summary of table 1
Method: as §1, §2, §3

Fusarium oxysporum = test: Antifungal activity, growth inhibition in liquid phase (MIC); conditions: summary of table 1
Method: The antifungal activity was determined by calculating the MIC (minimum inhibitory concentration) in a test of inhibition of Fusarium oxysporum growth in liquid phase, according to the protocol described by FELHBAUM et al. [J. Biol. Chem., 269: 33159-63, (1994)].
A series of successive doubling dilutions of the peptides is prepared as indicated above for determining the antibacterial activity.
80 μl of spores suspended (final concentration 10^4 spores/ml) in Potato Dextrose Broth medium (DIFCO) are added to 10 μl of peptide solution in sterile 96-well polypropylene microtitration plates. The final volume is adjusted to 100 μl by adding water. The growth inhibition is determined after incubation for 24 hours at 25° C. in the dark, by observation under a microscope and measurement of the increase in the OD600. The value of the MIC corresponds to a range (a-b) of peptide concentrations, in which (a) represents the highest concentration at which growth is observed, and (b) represents the lowest concentration which induces 100% growth inhibition.

Structure (SMILES)	Antiprotozoan activity (biological activity expressed in μM) (Perkinsus marinus)	Activity on Escherichia coli compared (in words) (Escherichia coli D31)	Activity on Micrococcus luteus (in words) (Micrococcus luteus)	Activity on Fusarium oxysporum compared (in words) (Fusarium oxysporum)
CSCC[C@@H]1NC(=O)[C@H](CCCCN)NC(=O)CNC(=O)[C@@H]2CCCN2C(=O)[C@H](Cc2c[nH]cn2)NC(=O)[C@H](CC(C)C)NC(=O)[C@H](C(C)C)NC(=O)[C@H](CCCNC(=N)N)NC(=O)[C@@H]2CSSC[C@H](NC(=O)[C@H](C)NC(=O)[C@H](Cc3c[nH]cn3)NC(=O)[C@H](CO)NC(=O)[C@@H](N)Cc3c[nH]cn3)C(=O)N[C@@H]([C@@H](C)O)C(=O)N[C@@H](CO)C(=O)N[C@@H](Cc3ccc(O)cc3)C(=O)N[C@@H](Cc3c[nH]c4ccccc34)C(=O)N[C@H]3CSSC[C@H](NC1=O)C(=O)N[C@@H](C)C(=O)N[C@H]1CSSC[C@H](NC(=O)[C@H](Cc4ccccc4)NC(=O)[C@H](CCCCN)NC(=O)CNC3=O)C(=O)NCC(=O)N[C@@H]([C@@H](C)O)C(=O)N[C@@H](C)C(=O)N[C@@H](CO)C(=O)N[C@@H](CSSC[C@@H](C(=O)N[C@@H](CO)C(=O)N[C@@H](CCCNC(=N)N)C(=O)O)NC(=O)[C@H](Cc3c[nH]cn3)NC(=O)[C@H](C(C)C)NC1=O)C(=O)N[C@@H]([C@@H](C)O)C(=O)N[C@@H](Cc1c[nH]cn1)C(=O)N[C@@H](Cc1ccc(O)cc1)C(=O)N[C@@H](CC(C)C)C(=O)N2 [Myticin a] (H-HSHACTSYWCGKFCGTASCTHYLCRVLHPGKMCACVHCSR-OH; disulfide 5-24, 10-33, 14-35, 19-38; N-terminus and C-terminus assumed)	>20 μM	–	–	–
CC(C)C[C@@H]1NC(=O)[C@H](CCCCN)NC(=O)CNC(=O)[C@H](CCCNC(=N)N)NC(=O)[C@H](Cc2c[nH]cn2)NC(=O)[C@H](CC(C)C)NC(=O)[C@H](CC(N)=O)NC(=O)[C@H](CCCNC(=N)N)NC(=O)[C@@H]2CSSC[C@H](NC(=O)[C@@H](NC(=O)[C@H](Cc3c[nH]cn3)NC(=O)[C@@H]3CCCN3C(=O)[C@@H](N)Cc3c[nH]cn3)C(C)C)C(=O)N[C@@H]([C@@H](C)O)C(=O)N[C@@H](CO)C(=O)N[C@@H](Cc3ccc(O)cc3)C(=O)N[C@@H](Cc3ccc(O)cc3)C(=O)N[C@H]3CSSC[C@H](NC1=O)C(=O)N[C@@H](Cc1ccccc1)C(=O)N[C@H]1CSSC[C@H](NC(=O)[C@H](Cc4ccccc4)NC(=O)[C@H](CCCCN)NC(=O)[C@H](CO)NC3=O)C(=O)NCC(=O)N[C@@H]([C@@H](C)O)C(=O)N[C@@H](C)C(=O)NCC(=O)N[C@@H](CSSC[C@@H](C(=O)N[C@@H](CO)C(=O)N[C@@H](CCCNC(=N)N)C(=O)O)NC(=O)[C@H](Cc3c[nH]cn3)NC(=O)[C@H](CC(C)C)NC1=O)C(=O)N[C@@H]([C@@H](C)O)C(=O)N[C@@H](CCCNC(=N)N)C(=O)N[C@@H](Cc1ccc(O)cc1)C(=O)NCC(=O)N2 [Myticin b] (H-HPHVCTSYYCSKFCGTAGCTRYGCRNLHRGKLCFCLHCSR-OH; disulfide 5-24, 10-33, 14-35, 19-38; N-terminus and C-terminus assumed)	>20 μM	more active than the Myticin a peptide	more active than the Myticin a peptide	more active than the Myticin a peptide
